# Test results reported in patent US20180318300A1, “TREATMENT OF AUTOIMMUNE DISEASE” (MingSight Pharmaceuticals, Inc., priority 2015, published 2018).
# Marks after values point to notes of the source that are not given here.
# Assays:
# [1] = system: experimental autoimmune encephalitis (EAE) model; assay: Experimental autoimmune encephalitis (EAE) model in Lewis rats; type: in vivo; conditions: for EAE incidence (%): from Day 8
# Description: Compound A was tested in the experimental autoimmune encephalitis (EAE) model in Lewis rats. EAE was induced by MBP69-88/CFA immunization and pertussis toxin injection in Lewis rats (Hashim, et al., 1986, J Neurosci Res.; 16(3):467-78). Compound A was prepared as an oral suspension and dosed orally, twice per day (BID) at three doses, 7.5 and 15 and 30 mg/kg for total daily doses of 15, 30 and 60 mg/kg. The efficacy was compared to animals that received the positive control FTY720 (also known as fingolimod; a compound approved for use in humans) dosed once per day at a dose of 0.5 mg/kg.
# Interleukin-8 release = assay: Interleukin-8 release; type: cell-based
# From the text: (§1) The methods for these determinations have been described (Grant, et al. 2010, Eur J Pharmacol. 627:16-25).
# [2] = Separate pharmacokinetics experiments in mice; type: in vivo; conditions: 60 mg/kg dose, oral suspension
# Human PKC delta = Human PKC delta (Homo sapiens, UniProt Q05655); assay: In vitro PKC inhibition assay, PKC delta; type: biochemical
# From the text: as §1
# PKCβ = PKCβ (Homo sapiens, UniProt P05771); assay: pSHP2 (PKCβ cell assay); type: cell-based
# MRL/lpr lupus model = assay: MRL/lpr lupus model; type: in vivo
# [3] = system: MRL/lpr mouse model of lupus; assay: MRL/lpr mouse model of lupus; type: in vivo, Female MRL/MpJ-Tnfrsf6lpr/J mice
# Description: Compound A was tested for efficacy in the MRL/lpr mouse model of lupus (Shlomchik M J, et al, 1994, J Exp Med 180:1295-1306; Cohen P L and Eisenberg R. A. 1991, Annu Rev Immunol, 9:243-69; Honigberg, L. A., et al., 2010, Proc Natl Acad Sci USA. 107:13075-80). Female MRL/MpJ-Tnfrsf6lpr/J mice of 8-9 weeks of age were used in the study. When the mice reached 12 weeks of age, they were randomized by animal body weight into one of the treatment groups or an untreated control group. Treatments was initiated after randomization and continued for 12 weeks. Starting on study week 1, and then every week thereafter, urine from each animal was tested for proteinuria using the Clinitech Multistick test strip (Bayer). The animals were observed daily for significant clinical signs, moribundity and mortality. Scoring of lymphadenopathy (cervical, brachial, and inguinal) for all animals was recorded every week once lesions become apparent in 50% of the animals in vehicle-treated group.
# Compound A was prepared as an oral suspension. Initial dosing was completed at two dose levels, 60 and 90 mg/kg, BID for a total dose of 120 and 180 mg/kg/day. […] Dosing for the final 8 weeks was at 180 and 240 mg/kg/day.
# [4] = treatment of increased spleen weight; type: in vivo; conditions: FIG. 10
# [5] = system: rat model of encephalitis; assay: rat model of encephalitis; type: in vivo; conditions: FIG. 11
# [6] = system: experimental autoimmune uveitis; assay: Lewis rat model of experimental autoimmune uveitis; type: in vivo; conditions: oral, once per day, 10 and 20 mg/kg
# Description: The efficacy was compared to animals that received the positive control cyclosporine dosed at 25 mg/kg. […] Efficacy in the model was assessed by clinical grading and by assessment of the sections of the eyes prepared for histology at the completion of the experiment.
# [7] = 120 mg/kg p.o. BID (60 mg/kg BID for the initial 4 weeks)
# [8] = both doses (180 and 240 mg/kg/day for the final 8 weeks)
# Sequence of Human PKC delta (Q05655 whole entry): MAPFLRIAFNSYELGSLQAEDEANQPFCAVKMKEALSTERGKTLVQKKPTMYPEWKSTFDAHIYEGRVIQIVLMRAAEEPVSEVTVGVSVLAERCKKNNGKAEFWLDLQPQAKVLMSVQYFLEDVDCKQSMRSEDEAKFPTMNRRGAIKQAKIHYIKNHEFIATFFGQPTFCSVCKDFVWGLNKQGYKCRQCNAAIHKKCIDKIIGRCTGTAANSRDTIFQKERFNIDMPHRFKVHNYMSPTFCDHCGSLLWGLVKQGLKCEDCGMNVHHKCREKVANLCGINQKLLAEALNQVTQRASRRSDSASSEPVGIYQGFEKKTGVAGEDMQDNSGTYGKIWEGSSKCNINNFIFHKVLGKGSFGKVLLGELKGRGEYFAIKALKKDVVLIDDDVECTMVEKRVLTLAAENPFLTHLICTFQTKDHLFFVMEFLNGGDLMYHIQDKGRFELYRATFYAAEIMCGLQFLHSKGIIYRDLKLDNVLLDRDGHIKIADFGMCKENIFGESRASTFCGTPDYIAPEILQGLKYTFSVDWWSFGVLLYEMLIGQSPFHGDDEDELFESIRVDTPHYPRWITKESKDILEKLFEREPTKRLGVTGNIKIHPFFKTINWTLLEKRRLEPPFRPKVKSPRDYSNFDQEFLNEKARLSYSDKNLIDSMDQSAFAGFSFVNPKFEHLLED
# Sequence of PKCβ (P05771 whole entry, species assumed): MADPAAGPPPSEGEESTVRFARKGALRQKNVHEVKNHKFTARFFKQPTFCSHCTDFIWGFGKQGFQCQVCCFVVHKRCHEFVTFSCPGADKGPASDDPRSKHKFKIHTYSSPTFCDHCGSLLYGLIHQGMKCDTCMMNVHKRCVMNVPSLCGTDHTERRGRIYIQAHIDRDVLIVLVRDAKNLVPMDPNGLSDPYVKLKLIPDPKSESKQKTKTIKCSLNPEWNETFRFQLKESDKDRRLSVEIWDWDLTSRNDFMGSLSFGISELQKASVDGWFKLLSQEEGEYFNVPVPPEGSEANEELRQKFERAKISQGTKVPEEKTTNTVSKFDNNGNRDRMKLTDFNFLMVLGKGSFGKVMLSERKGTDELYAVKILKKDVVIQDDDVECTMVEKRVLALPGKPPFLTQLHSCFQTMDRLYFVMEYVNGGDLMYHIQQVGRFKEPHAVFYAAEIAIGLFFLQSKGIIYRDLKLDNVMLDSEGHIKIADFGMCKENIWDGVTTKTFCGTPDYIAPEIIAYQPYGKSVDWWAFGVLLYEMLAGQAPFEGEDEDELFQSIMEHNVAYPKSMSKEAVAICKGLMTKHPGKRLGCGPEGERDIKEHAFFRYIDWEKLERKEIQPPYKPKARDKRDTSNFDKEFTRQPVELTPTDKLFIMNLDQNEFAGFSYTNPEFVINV
structure (smiles),measurement,setting,value
"CCCCCCCCc1ccc(CCC(N)(CO)CO)cc1 [FTY720, fingolimod, reference compound]",Mean day of onset +/− SEM (sick rats),[1]; 0.5 mg/kg p.o. QD,8.0 +/− 0.3
same,Median day of onset (all rats),[1]; 0.5 mg/kg p.o. QD,8.0
same,EAE incidence (%),[1]; 0.5 mg/kg p.o. QD,87.5%
"Cc1ncc(F)c(Nc2n[nH]c3c2CN(C(=O)N2C[C@@H](C)N(CC4CCOCC4)C[C@@H]2C)C3(C)C)n1 [compound A, 5-{[(2S,5R)-2,5-dimethyl-4-(tetrahydro-2H-pyran-4-ylmethyl)piperazin-1-yl]carbonyl}-N-(5-fluoro-2-methylpyrimidin-4-yl)-6,6-dimethyl-1,4,5,6-tetrahydropyrrolo[3,4-c]pyrazol-3-amine]",IC50,Interleukin-8 release,39 nM
same,Exposure of compound A in mice,[2],unexpectedly low and insufficient exposure
same,Inhibition of PKC delta (in words),Human PKC delta,does not significantly inhibit
same,IC50,PKCβ,9.8 nM
same,Mean day of onset +/− SEM (sick rats),[1]; 7.5 mg/kg p.o. BID,9.0 +/− 0.5
same,Median day of onset (all rats),[1]; 7.5 mg/kg p.o. BID,9.0
same,EAE incidence (%),[1]; 7.5 mg/kg p.o. BID,100.0%
same,Mean day of onset +/− SEM (sick rats),[1]; 15 mg/kg p.o. BID,8.5 +/− 0.4
same,Median day of onset (all rats),[1]; 15 mg/kg p.o. BID,8.0
same,EAE incidence (%),[1]; 15 mg/kg p.o. BID,100.0%
same,Mean day of onset +/− SEM (sick rats),[1]; 30 mg/kg p.o. BID,9.0 +/− 0.9
same,Median day of onset (all rats),[1]; 30 mg/kg p.o. BID,13.5
same,EAE incidence (%),"[1]; 30 mg/kg p.o. BID, p<0.05 vs. vehicle",50.0%*
same,Clinical score in the EAE model,"[1]; 7.5, 15 and 30 mg/kg BID",dose-dependent decrease
same,End EAE severity compared to the vehicle control group (FIG. 11),[1]; 15 and 30 mg/kg BID,significantly reduced
same,Maximum EAE severity compared to the vehicle control group (FIG. 11),[1]; 15 and 30 mg/kg BID,significantly reduced
same,Clinical score compared with fingolimod,[1]; highest dose employed (30 mg/kg BID) vs fingolimod 0.5 mg/kg QD,appeared superior to fingolimod
same,urine score,MRL/lpr lupus model; FIG. 7,reducing urine score
same,lymphadenopathy,MRL/lpr lupus model; FIG. 8,reducing lymphadenopathy
same,splenomegaly,MRL/lpr lupus model; FIG. 9,reducing splenomegaly
same,BUN/Creatinine,[3]; 90 mg/kg p.o. BID,163.9
same,Creatinine,[3]; 90 mg/kg p.o. BID,0.26
same,BUN,"[3]; 90 mg/kg p.o. BID, 12 weeks of treatment",52.4 mg/dL
same,BUN,[3]; [7],29.5 mg/dL
same,BUN/Creatinine,[3]; [7],147.7
same,Creatinine,[3]; [7],0.20
same,Lymphadenopathy score (FIG. 8),[3]; [8],reduction
same,Mean absolute spleen weight (FIG. 9),[3]; [8],reduction
same,Mean lymph node weight (FIG. 10),[3]; [8],reduction
same,Protein in the urine (FIG. 7),[3]; [8],significant reduction
same,increased spleen weight,[4],efficacy
same,efficacy in a rat model of encephalitis,[5],efficacy
same,Reduction in clinical scores (FIG. 12),[6],greater than 50%
same,Reduction in histopathological scores (FIG. 13),[6],greater than 75%
